Assay results published in US9707265B2, “Treatment of muscular dystrophy” (The University of Sheffield, priority 2012, dated 2017).
“Also recorded” adds a separate entry of the source. Where a SMILES comes first, the peptide text is derived from it. The star is where a group is joined. Cbz = O=C(OCc1ccccc1)*

What was measured:
sapje zebrafish = experiment: Rescue of the dystrophic phenotype (muscle integrity, actin:GFP) in sapje zebrafish embryos; type: in vivo; settings: sapje embryos treated from 24 hpf; actin:GFP as marker of muscle integrity
Description: Zebrafish embryos were collected from group matings of heterozygous sapje ta222a (a dystrophin mutant) and homozygous for a transgene that labels all the fast muscle with GFP (actin:GFP;). At 24 hours post fertilization (hpf) embryos were dechorionated enzymatically, washed and arrayed into multiwell plates with 40 embryos per treatment (5 embryos per well). Sapje embryos are produced at normal Mendelian frequencies, so from 40 embryos we expect 10 homozygote for sapje. Compounds to be tested were added to a final concentration based on available clinical or mouse studies for EC50. All plates included negative controls. Live embryos were assayed for muscle degeneration using actin:GFP as a marker of muscle integrity in sapje fish. Fluorescent scans for GFP along the body axis of wildtype siblings or mutant fish reveal a dramatic profile of fluorescence intensity which clearly distinguished the normal muscle from damaged muscle.

β-dystroglycan [1] = experiment: Western blot analysis of β-dystroglycan and phosphorylated β-dystroglycan in sapje fish; type: in vivo, zebrafish; settings: 1 μM MG132, western blot
Description: FIG. 16. Illustrates western blot analysis of β-dystroglycan (β-DG) and phosphorylated β-dystroglycan (p β-DG) in sapje fish (blue bars) and in sapje fish treated with 1 μM of the proteasomal inhibitor MG132 (purple bars).

[2] = target: T1, ubiquitin activating enzyme E1 (Homo sapiens, UniProt P22314); settings: reference 51; cited from earlier work
T1 sequence (P22314 1-1058): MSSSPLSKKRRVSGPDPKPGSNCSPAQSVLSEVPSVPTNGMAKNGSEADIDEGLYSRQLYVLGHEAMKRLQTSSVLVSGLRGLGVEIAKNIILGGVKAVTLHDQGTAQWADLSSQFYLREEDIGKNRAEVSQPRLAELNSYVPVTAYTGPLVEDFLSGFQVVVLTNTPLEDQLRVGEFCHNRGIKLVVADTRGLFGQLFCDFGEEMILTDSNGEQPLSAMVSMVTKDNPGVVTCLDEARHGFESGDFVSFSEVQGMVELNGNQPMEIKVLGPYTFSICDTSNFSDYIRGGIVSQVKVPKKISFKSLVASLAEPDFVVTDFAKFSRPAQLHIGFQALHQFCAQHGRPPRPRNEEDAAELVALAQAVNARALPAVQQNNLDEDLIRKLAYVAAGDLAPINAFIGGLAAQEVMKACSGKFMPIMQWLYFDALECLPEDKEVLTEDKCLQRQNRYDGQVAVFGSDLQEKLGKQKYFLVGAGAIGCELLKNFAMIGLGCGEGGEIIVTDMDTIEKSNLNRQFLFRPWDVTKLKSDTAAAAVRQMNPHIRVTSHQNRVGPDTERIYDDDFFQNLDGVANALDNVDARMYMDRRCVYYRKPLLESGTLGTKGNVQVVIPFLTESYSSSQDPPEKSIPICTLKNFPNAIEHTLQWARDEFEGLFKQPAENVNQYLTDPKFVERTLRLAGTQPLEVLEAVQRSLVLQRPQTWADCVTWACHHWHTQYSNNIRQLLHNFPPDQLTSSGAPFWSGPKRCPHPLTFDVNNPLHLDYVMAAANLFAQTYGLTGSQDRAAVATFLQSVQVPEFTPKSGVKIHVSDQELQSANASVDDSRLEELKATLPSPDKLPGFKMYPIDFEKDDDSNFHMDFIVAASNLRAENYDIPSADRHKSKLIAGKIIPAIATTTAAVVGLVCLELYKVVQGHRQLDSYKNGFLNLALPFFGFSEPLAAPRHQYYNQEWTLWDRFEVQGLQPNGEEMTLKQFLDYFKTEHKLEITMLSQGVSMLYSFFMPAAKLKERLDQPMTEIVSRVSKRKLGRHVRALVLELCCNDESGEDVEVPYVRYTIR

mdx mouse = settings: Gazzerro et al. 2010; cited from earlier work
β-dystroglycan [3] = experiment: β-dystroglycan ubiquitination after protein tyrosine phosphatase inhibition in myoblast cells expressing HA-tagged ubiquitin; type: cell-based; settings: immunoprecipitation and western blot
Excerpt: Tyrosine phosphatases were inhibited in myoblast cells in vitro using peroxyvanadate and samples from cells expressing HA-tagged ubiquitin were taken for immunoprecipitation and western blot analysis. Immunoprecipitation with either the HA tag, or β-dystroglycan at various time points was followed by Western blotting for the HA epitope, β-dystroglycan or tubulin as a loading control.

## CC(C)C[C@H](NC(=O)[C@H](CCc1ccccc1)NC(=O)CN1CCOCC1)C(=O)N[C@@H](Cc1ccccc1)C(=O)N[C@@H](CC(C)C)C(=O)[C@@]1(C)CO1 [Carfilzomib]
Sapje zebrafish
  effect on the dystrophic phenotype of sapje zebrafish: dose dependent rescue

## CC(C)C[C@@H](C=O)NC(=O)[C@H](CC(C)C)NC(=O)[C@H](CC(C)C)NC(=O)OCc1ccccc1 [MG132] (Cbz-Leu-Leu-Leu-aldehyde)
β-dystroglycan [1]
  amount of non-phosphorylated b-dystroglycan in treated sapje fish: significant increase
  amount of phosphorylated b-dystroglycan in treated sapje fish: significant increase
Sapje zebrafish
  effect on the dystrophic phenotype of sapje zebrafish: dose dependent rescue

## CCOC(=O)c1ccc(N2NC(=O)/C(=C/c3ccc([N+](=O)[O-])o3)C2=O)cc1 [Pyr-41]
Sapje zebrafish
  effect on the dystrophic phenotype of sapje zebrafish: small but positive benefit; also recorded: dose dependent rescue
[2]
  inhibition of ubiquitin activating enzyme E1: inhibit the ubiquitin activating enzyme E1

## CC(C)C[C@H](NC(=O)[C@H](Cc1ccccc1)NC(=O)c1cnccn1)B(O)O [bortezomib]
Sapje zebrafish
  effect on the dystrophic phenotype of sapje zebrafish: Qualitatively similar results; also recorded: dose dependent rescue
Mdx mouse
  restoration of DGC components: restore DGC components

## peroxyvanadate
β-dystroglycan [3]
  ubiquitin-β-dystroglycan bands over time course of treatment: increase in the proportion and number of ubiquitin-β-dystroglycan bands
